The format of data set [1] is in vivo, male CF-1 mice. The note with it: for AUC0→720min / Cmax / Tmax: EGCG 100 mg/kg i.g.
The target in data set [2] is T1, catechol-O-methyl transferase (COMT) (Mus musculus, UniProt O88587).
T1 sequence (O88587 1-265): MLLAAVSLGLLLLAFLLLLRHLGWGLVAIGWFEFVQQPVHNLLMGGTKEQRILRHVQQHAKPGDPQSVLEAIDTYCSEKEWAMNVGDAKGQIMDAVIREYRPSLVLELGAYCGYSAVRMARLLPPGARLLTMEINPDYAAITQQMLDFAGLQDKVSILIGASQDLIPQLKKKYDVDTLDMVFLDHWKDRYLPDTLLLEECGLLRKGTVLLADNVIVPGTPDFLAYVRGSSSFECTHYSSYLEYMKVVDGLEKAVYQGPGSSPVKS
Description: Fraction of unmethylated total EGCG. The data set is classed as in vivo, male CF-1 mice.

For data set [3], the system named is human lung cancer cells. The settings on record: human lung cancer cells in vitro; ref Forester & Lambert, 2014; cited from earlier work.
The test system of data set [4] is murine lung cancer cells. The note with it: murine lung cancer cells in vitro; ref Forester & Lambert, 2014; cited from earlier work.
Data set [5] concerns COMT. The settings on record: ref Wang, Heber, & Henning, 2012; cited from earlier work.

Broadly, the Tmax is the time from dosing to the highest level.

Structures are written as SMILES. Like-named read-outs stand apart in the source and are kept apart here.

With `O=C(O[C@@H]1Cc2c(O)cc(O)cc2O[C@@H]1c1cc(O)c(O)c(O)c1)c1cc(O)c(O)c(O)c1` [EGCG, (−)-epigallocatechin-3-gallate], the AUC0→720min in data set [1] (Cecum, TOL (+) 30 mg/kg i.g.) is recorded as 39152.8 ± 8338.2 (nmol/g)•min; in data set [1] (Cecum, TOL (−)), 41580.2 ± 10560.6 (nmol/g)•min; in data set [1] (Colon, TOL (+) 30 mg/kg i.g.) it was 18631.3 ± 2844.0 (nmol/g)•min; in data set [1] (Colon, TOL (−)) it was 26301.3 ± 8881.3 (nmol/g)•min; in data set [1] (Kidney, TOL (+) 30 mg/kg i.g.) it was 461.7 ± 358.5 (nmol/g)•min; in data set [1] (Kidney, TOL (−)) it was 95.7 ± 5.6 (nmol/g)•min. Moreover, the AUC0→720min is 1324.8 ± 390.5 (nmol/g)•min in data set [1] (Liver, TOL (+) 30 mg/kg i.g.); 871.5 ± 401.9 (nmol/g)•min in data set [1] (Liver, TOL (−)); 1002.1 ± 682.1 (nmol/g)•min in data set [1] (Lung, TOL (+) 30 mg/kg i.g.); 203.3 ± 156.4 (nmol/g)•min in data set [1] (Lung, TOL (−)); 154887.7 ± 39082.1 nM·min in data set [1] (Plasma, TOL (+) 30 mg/kg i.g.); 245330.8 ± 74700.1 nM·min in data set [1] (Plasma, TOL (−)). Moreover, the Cmax in data set [1] (Cecum, TOL (+) 30 mg/kg i.g.) turned out to be 97.7 ± 19.4 nmol/g; in data set [1] (Cecum, TOL (−)), 117.7 ± 31.7 nmol/g; in data set [1] (Colon, TOL (+) 30 mg/kg i.g.), 37.6 ± 5.8 nmol/g; in data set [1] (Colon, TOL (−)) it was 63.8 ± 9.6 nmol/g; in data set [1] (Kidney, TOL (+) 30 mg/kg i.g.), 2.0 ± 1.7 nmol/g; in data set [1] (Kidney, TOL (−)), 0.4 ± 0.1 nmol/g. The Cmax in data set [1] (Liver, TOL (+) 30 mg/kg i.g.) was found to be 2.7 ± 0.7 nmol/g; in data set [1] (Liver, TOL (−)), 2.2 ± 0.9 nmol/g; in data set [1] (Lung, TOL (+) 30 mg/kg i.g.) it was 23.3 ± 20.8 nmol/g; in data set [1] (Lung, TOL (−)) it was 1.4 ± 1.2 nmol/g; in data set [1] (Plasma, TOL (+) 30 mg/kg i.g.), 1530 ± 345 nM; in data set [1] (Plasma, TOL (−)) it was 1190 ± 315 nM. Moreover, the Tmax stood at 7.555 ± 2.118 h in data set [1] (Cecum, TOL (+) 30 mg/kg i.g.); 5.013 ± 1.66 h in data set [1] (Cecum, TOL (−)); 4 ± 1 h in data set [1] (Colon, TOL (+) 30 mg/kg i.g.); 7 ± 2.645 h in data set [1] (Colon, TOL (−)); 4.445 ± 3.783 h in data set [1] (Kidney, TOL (+) 30 mg/kg i.g.); 6.028 ± 3.44 h in data set [1] (Kidney, TOL (−)). Moreover, the Tmax was found to be 3.528 ± 1.792 h in data set [1] (Liver, TOL (+) 30 mg/kg i.g.); 3.333 ± 0.918 h in data set [1] (Liver, TOL (−)); 2.792 ± 1.893 h in data set [1] (Lung, TOL (+) 30 mg/kg i.g.); 2.355 ± 1.38 h in data set [1] (Lung, TOL (−)); 0.208 ± 0.0567 h in data set [1] (Plasma, TOL (+) 30 mg/kg i.g.); 0.278 ± 0.15 h in data set [1] (Plasma, TOL (−)). The Tmax in data set [1] (Urine (pooled), TOL (+) 30 mg/kg i.g.) amounted to 0.333 h; in data set [1] (Urine (pooled), TOL (−)), 0.083 h. Further, the “unmethylated EGCG as fraction of the total” value in data set [2] (plasma, EGCG 100 mg/kg i.g. with co-administration of TOL 30 mg/kg i.g.) is reported as 87.9%; in data set [2] (plasma, mice treated with EGCG 100 mg/kg i.g. only), 63.4%; in data set [2] (urine, EGCG 100 mg/kg i.g. plus TOL 30 mg/kg i.g.), 81.8%; in data set [2] (urine, mice treated with EGCG 100 mg/kg i.g. only) it was 29.2%.
As for `Cc1ccc(C(=O)c2cc(O)c(O)c([N+](=O)[O-])c2)cc1` [TOL, tolcapone, reference compound], the “effect on Cmax of unmethylated, unconjugated EGCG” value in data set [1] (cecum or colon, TOL co-treatment vs EGCG only) was “did not affect”; in data set [1] (plasma, liver, kidney, lung and urine, TOL co-administration vs EGCG only) it was “tended to increase”. For the same molecule, the “effect on AUC0→720min of unmethylated, unconjugated EGCG” value was “tended to increase” in data set [1] (liver, kidney, lung and urine, TOL co-administration vs EGCG only); “nor did it affect” in data set [1] (plasma, cecum and colon, TOL co-treatment vs EGCG only). For the same molecule, the “effect on levels of unmetabolised (unmethylated, unconjugated) EGCG” value in data set [1] (plasma, co-treatment TOL 30 mg/kg + EGCG 100 mg/kg i.g. vs EGCG only (Fig. 2)) is “did not significantly affect”. Also, the “growth inhibition in combination with EGCG” value in data set [3] and in data set [4] was “synergistically inhibited” in each case.
In the case of `CCN(CC)C(=O)/C(C#N)=C/c1cc(O)c(O)c([N+](=O)[O-])c1` [entacapone], the “growth inhibition in combination with EGCG” value in data set [3] and in data set [4] was “synergistically inhibited” each time.
As to `O=c1c(O)c(-c2ccc(O)c(O)c2)oc2cc(O)cc(O)c12` [quercetin], the “increase of the levels of EGCG found in the lung and kidney” value in data set [5] is on record as “greater than 2 fold”.

Source of the values: publication PMC4509505 (Journal of functional foods, 2015).
